Data reported in ChEMBL document CHEMBL5393452, “Mettl3 inhibitory compounds” (2020).
The source made the active and inactive calls. The calls are words filed in the database; no cut-off is given here.

What was measured:
MOLM-13 [1] = test: Antiproliferative activity against human MOLM-13 cells incubated for 6 days by CellTiter-Glo assay; format: functional, cell-based; conditions: MOLM-13, 144 h
Caov-3 cell line = test: Antiproliferative activity against human Caov-3 cells incubated for 120 hrs by CellTiter-Glo assay; format: functional, cell-based; conditions: Caov-3, 120 h
MOLM-13 [2] = test: Antiproliferative activity against IFN-gamma-treated human MOLM-13 cells incubated for 7 days by CellTiter-Glo assay; format: functional, cell-based; conditions: MOLM-13, 168 h
Kasumi 1 = test: Antiproliferative activity against IFN-gamma-treated human Kasumi 1 cells incubated for 6 days by CellTiter-Glo assay; format: functional, cell-based; conditions: Kasumi 1, 144 h
NOMO-1 = test: Antiproliferative activity against IFN-gamma-treated human NOMO-1 cells incubated for 6 days by CellTiter-Glo assay; format: functional, cell-based; conditions: NOMO-1, 144 h
THP-1 = test: Antiproliferative activity against IFN-gamma-treated human THP-1 cells incubated for 7 days by CellTiter-Glo assay; format: functional, cell-based; conditions: THP-1, 168 h
KCL-22 = test: Antiproliferative activity against IFN-gamma-treated human KCL-22 cells incubated for 6 days by CellTiter-Glo assay; format: functional, cell-based; conditions: KCL-22, 144 h
[3] = target: N6-adenosine-methyltransferase catalytic subunit (Homo sapiens, UniProt Q86U44); test: Inhibition of METTL3 in human MOLM-13 cells assessed as reduction in m6A methylation level at 0.1 to 50 uM measured by NanoDrop spectrophotomery analysis; format: cell-based; conditions: dose 0.1-50 µM
N6-adenosine-methyltransferase catalytic subunit, sequence (Q86U44 whole entry): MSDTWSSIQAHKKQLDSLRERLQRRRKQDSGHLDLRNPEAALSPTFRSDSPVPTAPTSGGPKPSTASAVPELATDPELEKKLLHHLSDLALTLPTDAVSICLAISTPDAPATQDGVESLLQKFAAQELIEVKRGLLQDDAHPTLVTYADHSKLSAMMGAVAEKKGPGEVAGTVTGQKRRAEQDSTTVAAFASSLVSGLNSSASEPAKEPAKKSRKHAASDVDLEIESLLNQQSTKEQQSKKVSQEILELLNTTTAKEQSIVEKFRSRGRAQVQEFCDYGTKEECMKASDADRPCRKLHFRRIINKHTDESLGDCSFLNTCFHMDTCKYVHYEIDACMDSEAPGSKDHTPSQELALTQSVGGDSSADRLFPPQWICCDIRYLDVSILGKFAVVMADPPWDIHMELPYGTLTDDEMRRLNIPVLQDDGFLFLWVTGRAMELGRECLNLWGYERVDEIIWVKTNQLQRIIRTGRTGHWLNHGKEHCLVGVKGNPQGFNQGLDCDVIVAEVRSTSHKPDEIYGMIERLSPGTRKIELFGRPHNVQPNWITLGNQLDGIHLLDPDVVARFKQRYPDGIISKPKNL

Row | SMILES | IC50 (MOLM-13 [1]) [µM] | further results
1 | Cc1ccc2nc(CNC(=O)c3cc(=O)n4ccccc4n3)cn2c1 | – | inhibition [3]: Active
2 | CN(C)C(=O)c1cc(-c2cn(Cc3cn4cc(CNCC5CCC5)ccc4n3)nn2)c2cn[nH]c2c1 | 30 | –
3 | O=C(NCc1cn2cc(CCNCc3ccccc3)ccc2n1)c1cc(=O)n2ccccc2n1 | 30 | –
4 | O=C(NCc1cn2cc(CNC3CCC3)ccc2n1)c1cc(=O)n2ccccc2n1 | 30 | –
5 | O=C(c1cc(-c2cn(Cc3cn4cc(CNCC5CCC5)ccc4n3)nn2)c2cn[nH]c2c1)N1CCOCC1 | 30 | –
6 | CN(Cc1ccccc1)Cc1ccc2nc(CNC(=O)c3cc(=O)n4ccccc4n3)cn2c1 | 30 | –
7 | NC(=O)c1cc(-c2cn(Cc3cn4cc(CNCC5CCC5)ccc4n3)nn2)c2cn[nH]c2c1 | 30 | –
8 | O=C(NCc1cn2cc(CNCC3CC4(CC4)C3)ccc2n1)c1cc(=O)n2ccccc2n1 | 30 | –
9 | COC(C)(C)CNCc1ccc2nc(CNC(=O)c3cc(=O)n4ccccc4n3)cn2c1 | 30 | –
10 | N#CCC(NCC1CCC1)c1ccc2nc(CNC(=O)c3cc(=O)n4ccccc4n3)cn2c1 (stereo not given) | 30 | –

More lines, in order of falling IC50 (MOLM-13 [1]), values ahead:

Row | IC50 (MOLM-13 [1]) [µM] | SMILES | further results
11 | 30 | CC(C)(O)CNCc1ccc2nc(CNC(=O)c3cc(=O)n4ccccc4n3)cn2c1 | –
12 | 30 | CC(C)(C)NCc1ccc2nc(CNC(=O)c3cc(=O)n4ccccc4n3)cn2c1 | –
13 | 30 | O=C(NCc1cn2cc(CNCCC3CC(F)(F)C3)ccc2n1)c1cc(=O)n2ccccc2n1 | –
14 | 30 | Oc1cc(-c2cn(Cc3cn4cc(CNCC5(O)CCC5)ccc4n3)nn2)c2cn[nH]c2c1 | –
15 | 30 | O=C(O)c1cc(-c2cn(Cc3cn4cc(CNCC5CCC5)ccc4n3)nn2)c2cn[nH]c2c1 | –
16 | 4.64 | O=C(NCc1cn2cc(CNCCCc3ccccc3)ccc2n1)c1cc(=O)n2ccccc2n1 | –
17 | 3.9 | O=C(NCc1cn2cc(CNCCc3ccccc3)ccc2n1)c1cc(=O)n2ccccc2n1 | –
18 | 3.59 | O=C(NCc1cn2cc(CNCc3ccccc3)ccc2n1)c1cc(=O)n2ccccc2n1 | IC50 (MOLM-13 [2]): 0.847 µM; IC50 (Kasumi 1): 1.89 µM; IC50 (NOMO-1): 6.55 µM; IC50 (THP-1): 2.12 µM; IC50 (KCL-22): 14 µM
19 | 1.33 | O=C(NCc1cn2cc(CNCC34CC(C3)C4)ccc2n1)c1cc(=O)n2ccccc2n1 | IC50 (Caov-3 cell line): 0.296 µM
